Like-named read-outs stand apart in the source and are kept apart here.
Legend:
WT-hCFTR [1] = molecular target: T1, WT-hCFTR (Homo sapiens, UniProt P13569); experiment: Two-electrode voltage clamp (TEVC) on wildtype hCFTR expressed in Xenopus oocytes; format: cell-based; conditions: for effect on hCFTR current (block / potentiation), in words / Kd: ~50 s extracellular exposure; for Kd: VM=−60 mV
T1 construct: expressed in transfected cells; host or cells: Xenopus laevis oocytes injected with cRNA (pGEMHE construct from Dr. D. Gadsby)
T1 sequence (P13569 whole entry): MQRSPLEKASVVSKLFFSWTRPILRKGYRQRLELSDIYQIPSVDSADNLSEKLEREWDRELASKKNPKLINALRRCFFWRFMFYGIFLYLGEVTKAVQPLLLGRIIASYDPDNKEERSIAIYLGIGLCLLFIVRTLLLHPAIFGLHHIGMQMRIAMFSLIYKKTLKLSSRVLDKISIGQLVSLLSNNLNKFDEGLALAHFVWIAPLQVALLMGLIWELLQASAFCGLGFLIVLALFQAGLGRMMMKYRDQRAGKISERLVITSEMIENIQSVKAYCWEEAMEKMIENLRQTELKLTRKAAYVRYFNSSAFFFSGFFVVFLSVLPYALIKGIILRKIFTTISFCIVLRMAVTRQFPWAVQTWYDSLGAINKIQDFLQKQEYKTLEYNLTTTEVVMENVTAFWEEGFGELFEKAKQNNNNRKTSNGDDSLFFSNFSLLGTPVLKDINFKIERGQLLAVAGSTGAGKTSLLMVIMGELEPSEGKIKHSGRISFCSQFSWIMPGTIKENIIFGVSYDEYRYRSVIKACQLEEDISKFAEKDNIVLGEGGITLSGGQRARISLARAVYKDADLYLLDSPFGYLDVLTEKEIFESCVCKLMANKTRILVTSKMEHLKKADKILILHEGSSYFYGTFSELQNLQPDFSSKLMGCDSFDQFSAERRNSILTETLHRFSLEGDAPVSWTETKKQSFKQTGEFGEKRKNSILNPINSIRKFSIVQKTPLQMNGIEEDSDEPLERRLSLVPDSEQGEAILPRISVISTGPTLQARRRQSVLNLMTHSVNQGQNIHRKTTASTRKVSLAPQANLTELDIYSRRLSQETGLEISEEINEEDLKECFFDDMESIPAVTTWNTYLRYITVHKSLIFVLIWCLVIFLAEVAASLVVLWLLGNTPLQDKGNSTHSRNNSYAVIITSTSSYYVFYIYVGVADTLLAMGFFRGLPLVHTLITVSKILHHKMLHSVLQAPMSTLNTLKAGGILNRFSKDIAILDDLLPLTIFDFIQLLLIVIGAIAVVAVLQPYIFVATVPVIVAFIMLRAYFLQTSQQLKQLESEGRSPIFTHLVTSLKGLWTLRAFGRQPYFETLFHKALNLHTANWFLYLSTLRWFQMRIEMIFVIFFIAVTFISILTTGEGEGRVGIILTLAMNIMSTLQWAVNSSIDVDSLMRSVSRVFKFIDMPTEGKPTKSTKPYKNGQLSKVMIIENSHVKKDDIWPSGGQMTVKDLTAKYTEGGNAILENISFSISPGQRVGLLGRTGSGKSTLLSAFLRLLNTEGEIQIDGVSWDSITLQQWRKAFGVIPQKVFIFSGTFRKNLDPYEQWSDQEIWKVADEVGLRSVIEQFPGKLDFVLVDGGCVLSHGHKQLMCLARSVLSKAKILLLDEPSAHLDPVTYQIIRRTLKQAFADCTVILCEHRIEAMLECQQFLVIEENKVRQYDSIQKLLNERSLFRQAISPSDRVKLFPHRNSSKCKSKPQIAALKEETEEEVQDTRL
Experimental: The effects of OSSK-2 and OSSK-3 on hCFTR were tested by expression in Xenopus oocytes. Representative current traces using the two-electrode voltage clamp technique (TEVC) are shown in FIGS. 2A and 2B for OSSK-3 and FIG. 2C for OSSK-2.
(§1) Human CFTR cRNAs used in electrophysiology experiments were prepared from constructs encoding WT-hCFTR in the pGEMHE vector (hCFTR/pGEMHE kindly provided by Dr. D. Gadsby, Rockefeller University). The mutants of hCFTR used in this study were prepared using site-directed mutagenesis with the Quikchange protocol (Stratagene, La Jolla, Calif.) and mutant constructs were verified by sequencing across the entire open reading frame before use. Xenopus laevis oocytes were injected with 0.4-10 ng of CFTR cRNAs, and were incubated at 17° C. in modified Liebovitz's L-15 media with the addition of HEPES (pH 7.5), penicillin, and streptomycin. Recordings were made typically 24-96 hours after the injection of cRNAs.
(§2) Standard two-electrode voltage clamp (TEVC) techniques were used to study the effects of chemicals with application of reagents to the extracellular bath. Each oocyte was injected with CFTR cRNA along with cRNA encoding the beta2-adrenergic receptor (β2AR). Electrode resistances measured 0.5-1.4 MΩ when filled with 3 M KCl and measured in standard ND96 bath solution that contained (in mM): 96 NaCl, 2 KCl, 1 MgCl2, and 5 HEPES (pH 7.5). CFTR channels were activated by exposure to 10 μM isoproterenol (ISO) in ND 96 and alternatively assayed in the presence or absence of different concentrations of compounds in the bath solution, typically in the continuing presence of ISO. Currents were acquired with an Axoclamp 900A amplifier and Clampex 10.2 software, and current data were digitized at 2 kHz.

F508del-hCFTR = molecular target: T2, F508del-hCFTR (Homo sapiens, UniProt P13569, DEL508-508); experiment: Two-electrode voltage clamp (TEVC) on F508del-hCFTR expressed in Xenopus oocytes; format: cell-based; conditions: for potentiation of F508del-hCFTR, summary in words: FIGS. 4A and 4B under modified conditions
T2 construct: expressed in transfected cells; host or cells: Xenopus laevis oocytes injected with cRNA; The mutant was made by Quikchange mutagenesis of hCFTR/pGEMHE
T2 sequence (P13569 with tags, fused parts or gaps DEL508-508): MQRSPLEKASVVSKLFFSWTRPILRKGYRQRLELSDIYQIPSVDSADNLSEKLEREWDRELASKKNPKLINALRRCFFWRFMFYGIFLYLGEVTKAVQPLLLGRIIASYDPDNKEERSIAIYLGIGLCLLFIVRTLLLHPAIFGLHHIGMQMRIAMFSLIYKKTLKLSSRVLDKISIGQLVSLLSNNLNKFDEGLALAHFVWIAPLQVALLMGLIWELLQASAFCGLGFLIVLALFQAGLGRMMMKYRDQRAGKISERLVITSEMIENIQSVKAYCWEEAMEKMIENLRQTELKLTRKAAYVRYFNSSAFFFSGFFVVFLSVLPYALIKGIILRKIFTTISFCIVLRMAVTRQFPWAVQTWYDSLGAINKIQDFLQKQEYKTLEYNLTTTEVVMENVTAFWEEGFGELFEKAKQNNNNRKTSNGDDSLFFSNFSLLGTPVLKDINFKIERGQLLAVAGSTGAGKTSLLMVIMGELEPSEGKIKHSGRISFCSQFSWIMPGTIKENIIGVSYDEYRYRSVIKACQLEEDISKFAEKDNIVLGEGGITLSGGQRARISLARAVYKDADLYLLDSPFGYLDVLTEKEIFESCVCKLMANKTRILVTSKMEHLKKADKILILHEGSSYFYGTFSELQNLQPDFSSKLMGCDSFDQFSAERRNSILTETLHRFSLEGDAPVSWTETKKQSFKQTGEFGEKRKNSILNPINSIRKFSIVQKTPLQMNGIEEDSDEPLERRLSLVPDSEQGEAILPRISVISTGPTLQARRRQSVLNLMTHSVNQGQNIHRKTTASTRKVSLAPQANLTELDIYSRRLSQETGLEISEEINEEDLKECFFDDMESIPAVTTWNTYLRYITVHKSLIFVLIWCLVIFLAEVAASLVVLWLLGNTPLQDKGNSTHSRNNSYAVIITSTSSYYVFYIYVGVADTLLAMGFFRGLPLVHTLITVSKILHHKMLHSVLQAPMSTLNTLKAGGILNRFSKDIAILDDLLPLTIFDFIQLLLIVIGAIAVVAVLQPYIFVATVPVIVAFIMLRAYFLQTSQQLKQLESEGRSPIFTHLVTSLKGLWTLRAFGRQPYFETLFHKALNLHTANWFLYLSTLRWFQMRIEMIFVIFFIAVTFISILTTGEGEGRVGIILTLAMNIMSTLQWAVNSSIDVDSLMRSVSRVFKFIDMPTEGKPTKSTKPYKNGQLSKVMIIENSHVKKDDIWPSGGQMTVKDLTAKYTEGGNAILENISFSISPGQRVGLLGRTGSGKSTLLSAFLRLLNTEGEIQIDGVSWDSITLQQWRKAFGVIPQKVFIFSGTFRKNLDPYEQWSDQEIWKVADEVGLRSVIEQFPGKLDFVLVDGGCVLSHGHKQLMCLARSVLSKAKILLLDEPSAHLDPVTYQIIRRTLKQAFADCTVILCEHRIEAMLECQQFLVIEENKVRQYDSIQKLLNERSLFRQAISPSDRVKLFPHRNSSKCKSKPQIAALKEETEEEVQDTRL
Experimental: Nearly 90% of CF patients in the United States bear at least one F508del-CFTR allele; OSSK-3, and OSSK-2 were studied on F508del-hCFTR using the TEVC technique at VM=−60 mV.
as §1, §2

WT-hCFTR [2] = molecular target: T1, WT-hCFTR; conditions: cited from earlier work
multiple CFTR mutations = conditions: cited from earlier work

## Cc1cccc(NCC(=O)N/N=C/c2cc(Br)c(O)c(Br)c2O)c1 [OSSK-2, (E)-N′-(3,5-dibromo-2,4-dihydroxybenzylidene)-2-(m-tolylamino)acetohydrazide]
WT-hCFTR [1]
  potentiation of WT-hCFTR, summary in words: mildly potentiate WT-hCFTR
  effect on hCFTR current (block / potentiation), in words: very weak block on hCFTR without obvious potentiation
F508del-hCFTR
  potentiation of F508del-hCFTR, summary in words: very strongly potentiate F508del-hCFTR

## CC(C)(C)c1cc(C(C)(C)C)c(NC(=O)c2c[nH]c3ccccc3c2=O)cc1O [VX-770, ivacaftor]
WT-hCFTR [2]
  potentiation of WT-hCFTR, in words: only mildly potentiates WT-hCFTR
Multiple CFTR mutations
  potentiation of mutant CFTR, in words: strongly potentiates multiple CFTR mutations

## Cc1ccc(NCC(=O)N/N=C/c2cc(Br)c(O)c(Br)c2O)cc1 [OSSK-3, (E)-N′-(3,5-dibromo-2,4-dihydroxybenzylidene)-2-(p-tolylamino)acetohydrazide]
WT-hCFTR [1]
  potentiation of WT-hCFTR, summary in words: mildly potentiate WT-hCFTR
  effect on hCFTR current (block / potentiation), in words: both block as well as potentiation of hCFTR
WT-hCFTR [1]; read-out: apparent Kd for block of hCFTR
  Kd: 33 µM
WT-hCFTR [1]; read-out: apparent Kd for potentiation of hCFTR
  Kd: 0.0317 µM
F508del-hCFTR
  potentiation of F508del-hCFTR, summary in words: very strongly potentiate F508del-hCFTR
F508del-hCFTR; VM=−60 mV, 5 μM, ~50 s extracellular exposure
  effect on F508del-hCFTR current (block / potentiation), in words: very weak initial block that was followed by significantly stronger potentiation compared to the potentiation of WT-hCFTR

Reference: patent publication US11116736B2, “2-amino-N'-benzylideneacetohydrazides and derivatives for the management of CFTR protein mediated diseases” (Emory University, priority 2015, dated 2021)
